Source: patent US20240043435A1, “TYK-2 INHIBITOR” (BEIGENE, LTD., priority 2020, published 2024)

Assays:
[1] = system: JAK2, TYK2/p-STAT4 (Tyr693) activated by IL-12 in NK-92 cell line; assay: IL-12-JAK2, TYK2/p-STAT4 (Tyr693) inhibition IC50 cellular assay; assay type: cell-based; settings: for Selectivity fold (TYK2/JAK2): Cellular assay, pSTAT5/GM-CSF IC50 vs pSTAT4/IL-12 IC50; for IC50: NK92, Cellular assay, read-out: pSTAT4/IL-12 IC50
Summary of the method: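 p-STAT4 (Tyr693) in lysates was measured by AlphaLISA SureFire Ultra after a 30 min IL-12 challenge (40 ng/ml final) at 37° C. Overnight-starved, IL-2-free NK-92 cells had been pretreated 1 h with compound at 10000 to 0.61 nM (4-fold, 8 points). IC50 values came from four-parameter logistic fitting.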

pSTAT5/GM-CSF = pSTAT5/GM-CSF cellular assay (JAK2 selectivity); assay type: cell-based
[2] = molecular target: T1, TYK2-JH2 (aa 575-869, in-house) protein (Homo sapiens, UniProt P29597); assay: TYK2-JH2 biochemical assay (HTRF probe displacement); assay type: binding; settings: Biochemical assay; read-out: TYK2-JH2 IC50
T1 construct: TYK2-JH2 (aa 575-869, in-house) protein; made in house
Summary of the method: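 HTRF probe-displacement format: compound dilutions (10 points, 5-fold, from 500 uM in DMSO at 500×) were combined with 0.2 nM TYK2-JH2 protein for 0.5 h at room temperature in HEPES pH 7.5 buffer with MgCl2, BSA, DTT and Brij-35. Percent inhibition came from the 615/665 nm fluorescence ratio, fitted to a four-parameter logistic for IC50.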

[3] = pSTAT5/GM-CSF IC50 over pSTAT4/IL-12 IC50

T1 sequence (P29597 575-869): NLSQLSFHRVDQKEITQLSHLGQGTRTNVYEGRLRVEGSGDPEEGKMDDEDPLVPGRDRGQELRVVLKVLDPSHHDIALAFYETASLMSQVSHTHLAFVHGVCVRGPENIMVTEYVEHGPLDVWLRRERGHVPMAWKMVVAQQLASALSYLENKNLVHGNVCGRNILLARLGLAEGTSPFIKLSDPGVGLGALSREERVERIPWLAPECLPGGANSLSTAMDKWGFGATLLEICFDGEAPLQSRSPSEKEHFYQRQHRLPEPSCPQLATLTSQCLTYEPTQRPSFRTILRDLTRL

Row | IC50 [1] | IC50 (pSTAT5/GM-CSF) | IC50 [2] | Structure (SMILES) | Selectivity fold (TYK2/JAK2) [1] | Selectivity fold (TYK2/JAK2) (pSTAT5/GM-CSF; [3]) | Selectivity fold (TYK2/JAK2) (pSTAT5/GM-CSF; pSTAT5/GM-CSF vs pSTAT4/IL-12)
1 | 1.01 nM | > 10000 nM | 0.062 nM | CCn1ccc(-c2cnc(NC(C)=O)cc2Nc2cc(OCCOC)cc(S(C)(=O)=O)n2)n1 [Example M20, N-(5-(1-ethyl-1H-pyrazol-3-yl)-4-((4-(2-methoxyethoxy)-6-(methylsulfonyl)pyridin-2-yl)amino)pyridin-2-yl)acetamide] | – | >9900 fold | –
2 | 1.93 nM | > 10000 nM | 0.037 nM | CC(=O)Nc1cc(Nc2cc(OC3COC3)cc(S(C)(=O)=O)n2)c(-c2ccn(C)n2)cn1 [Example J22, N-(5-(1-methyl-1H-pyrazol-3-yl)-4-((6-(methylsulfonyl)-4-(oxetan-3-yloxy)pyridin-2-yl)amino)pyridin-2-yl)acetamide] | – | >5181 fold | –
3 | 1.98 nM | > 10000 nM | 0.024 nM | CC(=O)Nc1cc(Nc2cc(-c3ccccc3)cc(S(C)(=O)=O)n2)c(-c2ccn(C)n2)cn1 [Example J38, N-(5-(1-methyl-1H-pyrazol-3-yl)-4-((6-(methylsulfonyl)-4-phenylpyridin-2-yl)amino)pyridin-2-yl)acetamide] | – | >5050 fold | –
4 | 1.69 nM | > 10000 nM | 0.035 nM | CCn1ccc(-c2cnc(NC(C)=O)cc2Nc2nc(S(C)(=O)=O)ccc2OC(C)C)n1 [Example M21, N-(5-(1-ethyl-1H-pyrazol-3-yl)-4-((3-isopropoxy-6-(methylsulfonyl)pyridin-2-yl)amino)pyridin-2-yl)acetamide] | – | >5917 fold | –
5 | 3.17 nM | > 10000 nM | 0.028 nM | CC(=O)Nc1cc(Nc2cc(S(C)(=O)=O)ccc2C)c(-c2ccc(C(C)(C)O)cn2)cn1 [Example H35, N-(5-(2-hydroxypropan-2-yl)-4′-((2-methyl-5-(methylsulfonyl)phenyl)amino)-[2,3′-bipyridin]-6′-yl)acetamide] | >3154 fold | – | –
6 | 21.7 nM | > 10000 nM | 0.041 nM | CC(=O)Nc1cc(Nc2cc(OCCO)cc(S(C)(=O)=O)n2)c(-c2ccc(C(C)(C)O)cn2)cn1 [Example H8, N-(4′-((4-(2-hydroxyethoxy)-6-(methylsulfonyl)pyridin-2-yl)amino)-5-(2-hydroxypropan-2-yl)-[2,3′-bipyridin]-6′-yl)acetamide] | >461 fold | – | –
7 | 0.189 nM | 1550 nM | 0.032 nM | CCn1ccc(-c2cnc(NC(C)=O)cc2Nc2cccc(S(C)(=O)=O)n2)n1 [Example M5, N-(5-(1-ethyl-1H-pyrazol-3-yl)-4-((6-(methylsulfonyl)pyridin-2-yl)amino)pyridin-2-yl)acetamide] | – | 8206 fold | –
8 | 0.626 nM | 2020 nM | 0.019 nM | CC(=O)Nc1cc(Nc2cc(C3COCCO3)cc(S(C)(=O)=O)n2)c(-c2ccc3c(n2)OCC(C)(C)O3)cn1 (racemic) [Example Q50, (R/S)—N-(4-((4-(1,4-dioxan-2-yl)-6-(methylsulfonyl)pyridin-2-yl)amino)-5-(2,2-dimethyl-2,3-dihydro-[1,4]dioxino[2,3-b]pyridin-6-yl)pyridin-2-yl)acetamide] | – | 3231 fold | –
9 | 2.35 nM | > 10000 nM | 0.033 nM | CC(=O)Nc1cc(Nc2cc(OC3CCOC3)cc(S(C)(=O)=O)n2)c(-c2ccn(C)n2)cn1 (stereo not shown) [Example J46, N-(5-(1-methyl-1H-pyrazol-3-yl)-4-((6-(methylsulfonyl)-4-((tetrahydrofuran-3-yl)oxy)pyridin-2-yl)amino)pyridin-2-yl)acetamide] | – | >4255 fold | –
10 | 1.14 nM | > 10000 nM | 0.023 nM | CC(=O)Nc1cc(Nc2cc(C)cc(S(C)(=O)=O)n2)c(-c2ccc3c(n2)OCCO3)cn1 [Example Q3, N-(5-(2,3-dihydro-[1,4]dioxino[2,3-b]pyridin-6-yl)-4-((4-methyl-6-(methylsulfonyl)pyridin-2-yl)amino)pyridin-2-yl)acetamide] | – | >8771 fold | –
11 | 0.755 nM | 459 nM | 0.051 nM | CC(=O)Nc1cc(Nc2cc(C#N)cc(S(C)(=O)=O)n2)c(-c2ccc3c(n2)OCC(C)(C)O3)cn1 [Example Q63, N-(4-((4-cyano-6-(methylsulfonyl)pyridin-2-yl)amino)-5-(2,2-dimethyl-2,3-dihydro-[1,4]dioxino[2,3-b]pyridin-6-yl)pyridin-2-yl)acetamide] | – | 608 fold | –
12 | 0.679 nM | 1810 nM | 0.02 nM | CC(=O)Nc1cc(Nc2cc(N3CCOC[C@@H]3C)cc(S(C)(=O)=O)n2)c(-c2ccc3c(n2)OCC(C)(C)O3)cn1 [Example Q35, (S)—N-(5-(2,2-dimethyl-2,3-dihydro-[1,4]dioxino[2,3-b]pyridin-6-yl)-4-((4-(3-methyl-morpholino)-6-(methylsulfonyl)pyridin-2-yl)amino)-pyridin-2-yl)acetamide] | – | 2665 fold | –
13 | 8.52 nM | 7180 nM | 0.048 nM | CC(=O)Nc1cc(Nc2cc(C(F)(F)F)cc(S(C)(=O)=O)c2)c(-c2ccc(C(C)(C)O)cn2)cn1 [Example H3, N-(5-(2-hydroxypropan-2-yl)-4′-((3-(methylsulfonyl)-5-(trifluoromethyl)phenyl)amino)-[2,3′-bipyridin]-6′-yl)acetamide] | >843 fold | – | –
14 | 66.2 nM | > 10000 nM | 0.19 nM | CC(=O)Nc1cc(Nc2cc(C#N)cc(S(C)(=O)=O)c2)c(-c2ccn(C)n2)cn1 [Example J7, N-(4-((3-cyano-5-(methylsulfonyl)phenyl)amino)-5-(1-methyl-1H-pyrazol-3-yl)pyridin-2-yl)acetamide] | – | >150 fold | –
15 | 0.637 nM | 473 nM | 0.024 nM | CC(=O)Nc1cc(Nc2cc(C3CCCOC3)cc(S(C)(=O)=O)n2)c(-c2ccc3c(n2)OCC(C)(C)O3)cn1 (stereo not shown) [Example Q75, N-(5-(2,2-dimethyl-2,3-dihydro-[1,4]dioxino[2,3-b]pyridin-6-yl)-4-((6-(methylsulfonyl)-4-(tetrahydro-2H-pyran-3-yl)pyridin-2-yl)amino)pyridin-2-yl)acetamide] | – | 742 fold | –

Continued, molecule first:

Row | Structure (SMILES) | IC50 [1] | IC50 (pSTAT5/GM-CSF) | IC50 [2] | Selectivity fold (TYK2/JAK2) [1] | Selectivity fold (TYK2/JAK2) (pSTAT5/GM-CSF; [3]) | Selectivity fold (TYK2/JAK2) (pSTAT5/GM-CSF; pSTAT5/GM-CSF vs pSTAT4/IL-12)
16 | CC(=O)Nc1cc(Nc2cc(OC(C)C)cc(S(C)(=O)=O)n2)c(-c2ccc(C(F)(F)F)cn2)cn1 [Example F9, N-(4′-((4-isopropoxy-6-(methylsulfonyl)pyridin-2-yl)amino)-5-(trifluoromethyl)-[2,3′-bipyridin]-6′-yl)acetamide] | 5.45 nM | > 10000 nM | 0.06 nM | > 1834 fold | – | –
17 | COC(C)c1cc(Nc2cc(NC(C)=O)ncc2-c2ccc(N3C[C@@H](C)O[C@@H](C)C3)cn2)nc(S(C)(=O)=O)c1 (stereo partly drawn) [Example C18, N-(5-(cis-2,6-dimethylmorpholino)-4′-((4-(1-methoxyethyl)-6-(methylsulfonyl)pyridin-2-yl)amino)-[2,3′-bipyridin]-6′-yl)acetamide] | 0.639 nM | 4870 nM | 0.023 nM | 7625 fold | – | –
18 | CC(=O)Nc1cc(Nc2cc(OCCO)cc(S(C)(=O)=O)n2)c(-c2ccccn2)cn1 [Example B7, N-(4′-((4-(2-hydroxyethoxy)-6-(methylsulfonyl)pyridin-2-yl)amino)-[2,3′-bipyridin]-6′-yl)acetamide] | 5.58 nM | > 10000 nM | 0.016 nM | >1792 fold | – | –
19 | COCCOc1cc(Nc2cc(NC(C)=O)ncc2-c2ccc(N3CCOCC3=O)cn2)nc(S(C)(=O)=O)c1 [Example G4, N-(4′-((4-(2-methoxyethoxy)-6-(methylsulfonyl)pyridin-2-yl)amino)-5-(3-oxomorpholino)-[2,3′-bipyridin]-6′-yl)acetamide] | 16 nM | > 10000 nM | 0.048 nM | – | – | >625 fold
20 | COCCOc1ccc(-c2cnc(NC(C)=O)cc2Nc2cc(OC)cc(S(C)(=O)=O)n2)nc1 [Example D5, N-(4′-((4-methoxy-6-(methylsulfonyl)pyridin-2-yl)amino)-5-(2-methoxyethoxy)-[2,3′-bipyridin]-6′-yl)acetamide] | 0.99 nM | > 10000 nM | 0.036 nM | >10101 fold | – | –
21 | COCc1ccc(-c2cnc(NC(C)=O)cc2Nc2cccc(S(C)(=O)=O)c2)nc1 [Example E1, N-(5-(methoxymethyl)-4′-((3-(methylsulfonyl)phenyl)amino)-[2,3′-bipyridin]-6′-yl)acetamide] | 4.55 nM | > 10000 nM | 0.022 nM | >2197 fold | – | –
22 | CC(=O)Nc1cc(Nc2cccc(S(C)(=O)=O)n2)c(-c2cc(Cl)c(C(C)(C)O)cn2)cn1 [Example B17, N-(4-chloro-5-(2-hydroxypropan-2-yl)-4′-((6-(methylsulfonyl)pyridin-2-yl)amino)-[2,3′-bipyridin]-6′-yl)acetamide] | 2.05 nM | > 10000 nM | 0.035 nM | >4878 fold | – | –
